Test system: TFEB
Assay: TFEB nuclear translocation assay, HeLa wt cells
Format: cell-based
Conditions: Homo sapiens, HeLa, 2 h, 2 hrs compound treatment, Table 1 does not say HeLa wt or TRPML1 KO
Procedure, shortened: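 Cells are plated overnight, exposed to compounds for 2 hrs at 37° C, fixed with 4% PFA, blocked, and stained overnight at 4° C with rabbit anti-TFEB. After Alexa 488 secondary and Hoechst, nuclei and a perinuclear ring are segmented to give a nuclear:ring intensity ratio and AC50.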

SMILES | AC50 [nM]
CN(C)S(=O)(=O)c1ccc(S(=O)(=O)Nc2ccccc2N2CCN(C(=O)C3(CF)CCC3)CC2)cc1 [Compound A-430, N4-(2-{4-[1-(fluoromethyl)cyclobutanecarbonyl]piperazin-1-yl}phenyl)-N1,N1-dimethylbenzene-1,4-disulfonamide] | 2010 to 8000
COC(C)(C)C(=O)N1CCN(c2ccccc2NS(=O)(=O)c2ccc(S(=O)(=O)N(C)C)cc2)CC1 [Compound A-431, N4-{2-[4-(2-methoxy-2-methylpropanoyl)piperazin-1-yl]phenyl}-N1,N1-dimethylbenzene-1,4-disulfonamide] | 2010 to 8000
CN(C)S(=O)(=O)c1ccc(S(=O)(=O)Nc2ccccc2N2CCN(C(=O)C(C)(C)F)CC2)cc1 [Compound A-432, N4-{2-[4-(2-fluoro-2-methylpropanoyl)piperazin-1-yl]phenyl}-N1,N1-dimethylbenzene-1,4-disulfonamide] | 2010 to 8000
CN(C)S(=O)(=O)c1ccc(S(=O)(=O)Nc2ccccc2N2CCC(C3(O)CC3)CC2)cc1 [Compound A-433, N4-{2-[4-(1-hydroxycyclopropyl)piperidin-1-yl]phenyl}-N1,N1-dimethylbenzene-1,4-disulfonamide] | 2010 to 8000
COCC1CCN(c2ccccc2NS(=O)(=O)c2ccc(S(=O)(=O)N(C)C)cc2)CC1 [Compound A-434, N4-{2-[4-(methoxymethyl)piperidin-1-yl]phenyl}-N1,N1-dimethylbenzene-1,4-disulfonamide] | ≤ 2000
CN(C)S(=O)(=O)c1ccc(S(=O)(=O)Nc2ccccc2N2CCC(C3CCCCO3)CC2)cc1 (stereo not shown) [Compound A-435, N1,N1-dimethyl-N4-{2-[4-(oxan-2-yl)piperidin-1-yl]phenyl}benzene-1,4-disulfonamide] | ≤ 2000
CN(C)S(=O)(=O)c1ccc(S(=O)(=O)Nc2ccccc2N2CCC(C)(CO)CC2)cc1 [Compound A-436, N4-{2-[4-(hydroxymethyl)-4-methylpiperidin-1-yl]phenyl}-N1,N1-dimethylbenzene-1,4-disulfonamide] | 2010 to 8000
CN(C)S(=O)(=O)c1ccc(S(=O)(=O)Nc2ccccc2N2CCC(C3COCCO3)CC2)cc1 (stereo not shown) [Compound A-437, N4-{2-[4-(1,4-dioxan-2-yl)piperidin-1-yl]phenyl}-N1,N1-dimethylbenzene-1,4-disulfonamide] | 2010 to 8000
COCC1(C)CCN(c2ccccc2NS(=O)(=O)c2ccc(S(=O)(=O)N(C)C)cc2)CC1 [Compound A-438, N4-{2-[4-(methoxymethyl)-4-methylpiperidin-1-yl]phenyl}-N1,N1-dimethylbenzene-1,4-disulfonamide] | ≤ 2000
CN1CC2(CCN(c3ccc(Cl)cc3NS(=O)(=O)c3ccc4c(c3)CCC4)CC2)c2ccc(F)cc21 [Compound A-439, N-(5-chloro-2-{6-fluoro-1-methyl-1,2-dihydrospiro[indole-3,4′-piperidin]-1′-yl}phenyl)-2,3-dihydro-1H-indene-5-sulfonamide] | ≤ 2000
CN(C)S(=O)(=O)c1ccc(S(=O)(=O)Nc2ccccc2N2CCC3(CC2)COC(C)(C)C3)cc1 [Compound A-440, N4-(2-{3,3-dimethyl-2-oxa-8-azaspiro[4.5]decan-8-yl}phenyl)-N1,N1-dimethylbenzene-1,4-disulfonamide] | ≤ 2000
CN1CCc2ccccc2C12CCN(c1ccccc1NS(=O)(=O)c1ccc(S(C)(=O)=O)cc1)CC2 [Compound A-441, N-(2-(2-methyl-3,4-dihydro-2H-spiro[isoquinoline-1,4′-piperidin]-1′-yl)phenyl)-4-(methylsulfonyl)benzenesulfonamide] | 2010 to 8000
CN(C)S(=O)(=O)c1ccc(S(=O)(=O)Nc2ccccc2N2CCC3(CC2)CN(C(=O)OC2CCOC2)c2cc(F)ccc23)cc1 (stereo not shown) [Compound A-442, oxolan-3-yl 1′-{2-[4-(dimethylsulfamoyl)benzenesulfonamido]phenyl}-6-fluoro-1,2-dihydrospiro[indole-3,4′-piperidine]-1-carboxylate] | ≤ 2000
CC(Nc1ccccc1N1CCC(c2ccc(Cl)cc2F)CC1)c1ccc(S(=O)(=O)N(C)C)cc1 (stereo not shown) [Compound A-443, 4-[1-({2-[4-(4-chloro-2-fluorophenyl)piperidin-1-yl]phenyl}amino)ethyl]-N,N-dimethylbenzene-1-sulfonamide] | 2010 to 8000
COC1(C(=O)N2CCN(c3ccccc3NS(=O)(=O)c3ccc(S(=O)(=O)N(C)C)cc3)CC2)CCCC1 [Compound A-444, N4-{2-[4-(1-methoxycyclopentanecarbonyl)piperazin-1-yl]phenyl}-N1,N1-dimethylbenzene-1,4-disulfonamide] | ≤ 2000
COC1(C(=O)N2CCN(c3ccccc3NS(=O)(=O)c3ccc(S(=O)(=O)N(C)C)cc3)CC2)CCCCC1 [Compound A-445, N4-{2-[4-(1-methoxycyclohexanecarbonyl)piperazin-1-yl]phenyl}-N1,N1-dimethylbenzene-1,4-disulfonamide] | ≤ 2000
CN(C)S(=O)(=O)c1ccc(S(=O)(=O)Nc2ccccc2N2CCN(C(=O)C(C)(F)F)CC2)cc1 [Compound A-446, N4-{2-[4-(2,2-difluoropropanoyl)piperazin-1-yl]phenyl}-N1,N1-dimethylbenzene-1,4-disulfonamide] | 2010 to 8000

SMILES | AC50 [nM]
CN(C)S(=O)(=O)c1ccc(S(=O)(=O)Nc2ccccc2N2CCN(C(=O)N3CC4CC3C4)CC2)cc1 [Compound A-447] | 2010 to 8000
CN(C)S(=O)(=O)c1ccc(S(=O)(=O)Nc2ccccc2N2CCN(C(=O)C3(C)CCCCO3)CC2)cc1 (stereo not shown) [Compound A-448, N1,N1-dimethyl-N4-{2-[4-(2-methyloxane-2-carbonyl)piperazin-1-yl]phenyl}benzene-1,4-disulfonamide] | ≤ 2000
CN(C)S(=O)(=O)c1ccc(S(=O)(=O)Nc2ccccc2N2CCN(C3CCCOC3)CC2)cc1 (stereo not shown) [Compound A-450, N1,N1-dimethyl-N4-{2-[4-(oxan-3-yl)piperazin-1-yl]phenyl}benzene-1,4-disulfonamide] | 8010 to 9990
CCC1(N2CCOCC2)CCN(c2ccccc2NS(=O)(=O)c2ccc(S(=O)(=O)N(C)C)cc2)CC1 [Compound A-451, N4-{2-[4-ethyl-4-(morpholin-4-yl)piperidin-1-yl]phenyl}-N1,N1-dimethylbenzene-1,4-disulfonamide] | ≤ 2000
CCC1(N2CCCC2)CCN(c2ccccc2NS(=O)(=O)c2ccc(S(=O)(=O)N(C)C)cc2)CC1 [Compound A-452, N4-{2-[4-ethyl-4-(pyrrolidin-1-yl)piperidin-1-yl]phenyl}-N1,N1-dimethylbenzene-1,4-disulfonamide] | 8010 to 9990
CN(C)S(=O)(=O)c1ccc(S(=O)(=O)Nc2ccccc2N2CCN(C3CCCC3)CC2)cc1 [Compound A-453, N4-[2-(4-cyclopentylpiperazin-1-yl)phenyl]-N1,N1-dimethylbenzene-1,4-disulfonamide] | 2010 to 8000
COC1(C)CCN(c2ccccc2NS(=O)(=O)c2ccc(S(=O)(=O)N(C)C)cc2)CC1 [Compound A-454, N4-[2-(4-methoxy-4-methylpiperidin-1-yl)phenyl]-N1,N1-dimethylbenzene-1,4-disulfonamide] | ≤ 2000
CCC(C)(C)N1CCN(c2ccccc2NS(=O)(=O)c2ccc(S(=O)(=O)N(C)C)cc2)CC1 [Compound A-455, N1,N1-dimethyl-N4-{2-[4-(2-methylbutan-2-yl)piperazin-1-yl]phenyl}benzene-1,4-disulfonamide] | 2010 to 8000
CC(N1CCN(c2ccccc2NS(=O)(=O)c2ccc(S(=O)(=O)N(C)C)cc2)CC1)C(F)(F)F (stereo not shown) [Compound A-456, N1,N1-dimethyl-N4-{2-[4-(1,1,1-trifluoropropan-2-yl)piperazin-1-yl]phenyl}benzene-1,4-disulfonamide] | ≤ 2000
CC(C)Oc1ccc(S(=O)(=O)Nc2cccc(Cl)c2N2CCOCC2)cc1 [Compound A-457, N-[3-chloro-2-(morpholin-4-yl)phenyl]-4-(propan-2-yloxy)benzene-1-sulfonamide] | 2010 to 8000
COC1(C(=O)N2CCN(c3ccccc3NS(=O)(=O)c3ccc(S(=O)(=O)N(C)C)cc3)CC2)CCC1 [Compound A-458, N4-{2-[4-(1-methoxycyclobutanecarbonyl)piperazin-1-yl]phenyl}-N1,N1-dimethylbenzene-1,4-disulfonamide] | 2010 to 8000
CN(C)S(=O)(=O)c1ccc(S(=O)(=O)Nc2ccccc2N2CCN(C(=O)C3CCCC3(F)F)CC2)cc1 (stereo not shown) [Compound A-459, N4-{2-[4-(2,2-difluorocyclopentanecarbonyl)piperazin-1-yl]phenyl}-N1,N1-dimethylbenzene-1,4-disulfonamide] | 2010 to 8000
CN(C)S(=O)(=O)c1ccc(S(=O)(=O)Nc2ccccc2N2CCN(C(=O)C34CCC(CC3)C4)CC2)cc1 [Compound A-460, N4-[2-(4-{bicyclo[2.2.1]heptane-1-carbonyl}piperazin-1-yl)phenyl]-N1,N1-dimethylbenzene-1,4-disulfonamide] | ≤ 2000
CN(C)S(=O)(=O)c1ccc(S(=O)(=O)Nc2ccccc2N2CCN(C(=O)C3(F)CC3)CC2)cc1 [Compound A-461, N4-{2-[4-(1-fluorocyclopropanecarbonyl)piperazin-1-yl]phenyl}-N1,N1-dimethylbenzene-1,4-disulfonamide] | 2010 to 8000
CN(C)S(=O)(=O)c1ccc(S(=O)(=O)Nc2ccccc2N2CCN(C(=O)C3CC34CC4)CC2)cc1 (stereo not shown) [Compound A-462, N1,N1-dimethyl-N4-[2-(4-{spiro[2.2]pentane-1-carbonyl}piperazin-1-yl)phenyl]benzene-1,4-disulfonamide] | 2010 to 8000
CCC1(N2CCN(c3ccccc3NS(=O)(=O)c3ccc(S(=O)(=O)N(C)C)cc3)CC2)COC1 [Compound A-464, N4-{2-[4-(3-ethyloxetan-3-yl)piperazin-1-yl]phenyl}-N1,N1-dimethylbenzene-1,4-disulfonamide] | 2010 to 8000
CC(c1ccccc1N1CCN(Cc2ccccc2)CC1)S(=O)(=O)c1ccc(S(=O)(=O)N(C)C)cc1 (stereo not shown) [Compound A-465, 4-((1-(2-(4-benzylpiperazin-1-yl)phenyl)ethyl)sulfonyl)-N,N-dimethylbenzenesulfonamide] | ≤ 2000

Reference: US20230104936A1, “TRPML MODULATORS” (Casma Therapeutics, Inc., priority 2019, published 2023)
